Values of other authors as cited in patent EP4759315A1, “DRUG PREPARED FROM ORGANIC GERMANIUM COMPOUND AND GLUCOSAMINE COMPOUND, AND USE THEREOF” (Eion International Ltd., priority 2023, dated 2025).

Experiments:
[1] = in vivo

SMILES: O=C(O)C[CH2][Ge](=[O])[O][Ge](=[O])[CH2]CC(=O)O [Ge-132, bis(carboxyethyl)germanium sesquioxide]
- No-Observable-Adverse-Effect Level (NOAEL) [1]: 2000 mg/kg body weight/day
- pH of the solution (at the concentration of 1.28 g/100 ml in water): 3.06-3.12
- solubility in water (water): 1.28 g/100 ml
